Measured values taken from patent publication US6995159B2, “5-HT receptor ligands and uses thereof” (Pfizer Inc., priority 2001, dated 2006).
Where a name gives a salt, the structure may show the parent alone.

Tests used:
5-HT2a receptor = experiment: Functional assay (FLIPR calcium, Fluo 4-AM) in 5-HT2a expressed cells; assay type: cell-based; settings: 5-HT2a expressed NIH 3T3 cells; for 5-HT2a functional activity: at 10 μM
Experimental: (§1) Swiss 3T3 cells expressing r-5HT2C, r-5HT2A, h-5HT2C or h-5HT2A receptors are seeded at a density of 12,500 cells/well in 384 well black/clear collagen-coated plates. Forty eight (48) hrs later the cells are loaded with the calcium sensitive dye, Fluo 4-AM (4 μM dissolved in DMSO containing pluronic acid) in serum free DMEM in the presence of probenicid (2.5 mM) for 75 minutes at 37° C. in a CO2 incubator. Unincorporated dye is removed by washing 3 times with a HEPES-buffered saline containing probenicid (2.5 mM) using a Skatron™ cell washer (final volume 30 μL).
(§2) Plates are added to a fluorometric imaging plate reader (FLIPR 384 available from Molecular Devices Corporation) individually and fluorescence measurements are taken every 2 seconds over an 85 seconds period. Test compound additions are made simultaneously to all 384 wells after 20 seconds of baseline recording. Concentration-response curves are generated using Graphpad Prism™ (available from GraphPad Software, Inc., San Diego, Calif.) and agonist efficacies are generated as % of the response to 10 μM 5-HT (considered as 100%). Estimation of antagonist potencies (functional Kis) are generated by measuring inhibition of the test compound response to 5-HT (10 nM for 5-HT2C and 50 nM for 5-HT2A) and applying the Cheng Prusoff equation.
The functional data for the compounds listed in the Examples above utilizing the 5-HT2a expressed NIH 3T3 cells is summarized below.

5-HT2c receptor = experiment: Functional assay (FLIPR calcium, Fluo 4-AM) in 5-HT2c expressed cells; assay type: cell-based; settings: 5-HT2c expressed NIH 3T3 cells; for 5-HT2c functional activity: at 10 μM
Experimental: as §1, §2
The functional data for the compounds listed in the Examples above utilizing the 5-HT2c expressed NIH 3T3 cells is summarized below.

## C[C@H](Oc1nccc(N2CCNCC2)n1)c1ccccc1 [Example 1-AG, 2-[(1S)-Phenyl-ethoxy]-4-piperazin-1-yl-pyrimidine]
5-HT2a receptor
  5-HT2a functional activity: no functional activity

## COc1cccc(COc2nc(C)cc(N3CCNCC3)n2)c1 [Example 1-AL, 2-(3-Methoxy-benzyloxy)-4-methyl-6-piperazin-1-yl-pyrimidine]
5-HT2a receptor
  functional mode at 5-HT2a (partial agonist / full antagonist): full antagonists
  5-HT2a functional activity: no functional activity

## Cc1cc(N2CCNCC2)nc(OCc2cccc(Oc3ccccc3)c2)n1 [Example 1-D, 4-Methyl-2-(3-phenoxy-benzyloxy)-6-piperazin-1-yl-pyrimidine]
5-HT2a receptor
  5-HT2a functional activity: no functional activity

## Cc1cc(N2CCNCC2)nc(OCc2cccc(OC(F)(F)F)c2)n1 [Example 1-F, 4-Methyl-6-piperazin-1-yl-2-(3-trifluoromethoxy-benzyloxy)-pyrimidine]
5-HT2a receptor
  5-HT2a functional activity: no functional activity

## Cl.Clc1cccc(Cl)c1COc1nccc(N2CCNCC2)n1 [Example 1-FF, 2-(2,6-Dichloro-benzyloxy)-4-piperazin-1-yl-pyrimidine, hydrochloride]
5-HT2a receptor
  functional mode at 5-HT2a (partial agonist / full antagonist): full antagonists

## Cl.Clc1cccc(COc2nccc(N3CCNCC3)n2)c1Cl [Example 1-GG, 2-(2,3-Dichloro-benzyloxy)-4-piperazin-1-yl-pyrimidine, hydrochloride]
5-HT2a receptor
  functional mode at 5-HT2a (partial agonist / full antagonist): full antagonists

## Cl.Clc1cc(Cl)cc(COc2nccc(N3CCNCC3)n2)c1 [Example 1-HH, 2-(3,5-Dichloro-benzyloxy)-4-piperazin-1-yl-pyrimidine, hydrochloride]
5-HT2a receptor
  functional mode at 5-HT2a (partial agonist / full antagonist): full antagonists

## Cl.FC(F)(F)Oc1ccccc1COc1nccc(N2CCNCC2)n1 [Example 1-II, 4-Piperazin-1-yl-2-(2-trifluoromethoxy-benzyloxy)-pyrimidine, hydrochloride]
5-HT2a receptor
  functional mode at 5-HT2a (partial agonist / full antagonist): full antagonists

## C[C@@H]1CN(c2ccnc(OCc3cccc(Cl)c3)n2)CCN1 [Example 1-MM, 2-(3-Chloro-benzyloxy)-4-[(3R)-methyl-piperazin-1-yl]pyrimidine]
5-HT2a receptor
  functional mode at 5-HT2a (partial agonist / full antagonist): full antagonists

## Fc1ccc(C(F)(F)F)c(COc2nccc(N3CCNCC3)n2)c1 [Example 1-PP, 2-(5-Fluoro-2-trifluoromethyl-benzyloxy)-4-piperazin-1-yl-pyrimidine]
5-HT2c receptor
  functional mode at 5-HT2c (partial agonist / full antagonist): full antagonists
5-HT2a receptor
  functional mode at 5-HT2a (partial agonist / full antagonist): full antagonists

## FC(F)(F)c1cc(COc2nccc(N3CCNCC3)n2)cc(C(F)(F)F)c1 [Example 1-QQ, 2-(3,5-Bis-trifluoromethyl-benzyloxy)-4-piperazin-1-yl-pyrimidine]
5-HT2c receptor
  5-HT2c functional activity: no 5-HT2c functional activity
5-HT2a receptor
  5-HT2a functional activity: no functional activity

## Clc1ccc(COc2nccc(N3CCNCC3)n2)cc1Cl [Example 1-S, 2-(3,4-Dichloro-benzyloxy)-4-piperazin-1-yl-pyrimidine]
5-HT2a receptor
  functional mode at 5-HT2a (partial agonist / full antagonist): full antagonists

## Fc1ccc(COc2nccc(N3CCNCC3)n2)cc1F [Example 1-U, 2-(3,4-Difluoro-benzyloxy)-4-piperazin-1-yl-pyrimidine]
5-HT2a receptor
  functional mode at 5-HT2a (partial agonist / full antagonist): full antagonists

## C[C@H]1CNCCN1c1ccnc(OCc2cc(Cl)ccc2Cl)n1 [Example 1-VV, 2-(2,5-Dichloro-benzyloxy)-4-[(2S)-methyl-piperazin-1-yl]-pyrimidine]
5-HT2a receptor
  functional mode at 5-HT2a (partial agonist / full antagonist): full antagonists

## C[C@H]1CNCCN1c1ccnc(OCc2cc(F)ccc2F)n1 [Example 1-WW, 2-(2,5-Difluoro-benzyloxy)-4-[(2S)-methyl-piperazin-1-yl]-pyrimidine]
5-HT2a receptor
  functional mode at 5-HT2a (partial agonist / full antagonist): full antagonists

## Cl.Fc1cccc(COc2nccc(N3CCNCC3)n2)c1F [Example 1-Y, 2-(2,3-Difluoro-benzyloxy)-4-piperazin-1-yl-pyrimidine, hydrochloride]
5-HT2a receptor
  functional mode at 5-HT2a (partial agonist / full antagonist): full antagonists

## Fc1cc(COc2nccc(N3CCNCC3)n2)cc(F)c1F [Example 1-YY, 4-Piperazin-1-yl-2-(3,4,5-trifluoro-benzyloxy)-pyrimidine]
5-HT2a receptor
  functional mode at 5-HT2a (partial agonist / full antagonist): full antagonists

## CC(Oc1ccnc(N2CCNCC2)n1)c1ccc(Cl)cc1 (stereo not shown) [Example 2-D, 4-[1-(4-Chloro-phenyl)-ethoxy]-2-piperazin-1-yl-pyrimidine]
5-HT2c receptor
  5-HT2c functional activity: no 5-HT2c functional activity

## Fc1ccc(COc2ccnc(N3CCNCC3)n2)cc1 [Example 2-E, 4-(4-Fluoro-benzyloxy)-2-piperazin-1-yl-pyrimidine]
5-HT2a receptor
  functional mode at 5-HT2a (partial agonist / full antagonist): full antagonists

## Clc1ccc(COc2ccnc(N3CCNCC3)n2)cc1Cl [Example 2-F, 4-(3,4-Dichloro-benzyloxy)-2-piperazin-1-yl-pyrimidine]
5-HT2c receptor
  functional mode at 5-HT2c (partial agonist / full antagonist): full antagonists
5-HT2a receptor
  functional mode at 5-HT2a (partial agonist / full antagonist): full antagonists

## Fc1ccc(COc2ccnc(N3CCNCC3)n2)cc1F [Example 2-G, 4-(3,4-Difluoro-benzyloxy)-2-piperazin-1-yl-pyrimidine]
5-HT2a receptor
  functional mode at 5-HT2a (partial agonist / full antagonist): full antagonists

## Cc1ccc(COc2ccnc(N3CCNCC3)n2)cc1C.Cl [Example 2-H, 4-(3,4-Dimethyl-benzyloxy)-2-piperazin-1-yl-pyrimidine, hydrochloride]
5-HT2c receptor
  5-HT2c functional activity: no 5-HT2c functional activity
5-HT2a receptor
  functional mode at 5-HT2a (partial agonist / full antagonist): full antagonists

## Fc1cccc(COc2ccnc(N3CCNCC3)n2)c1F.O=C(O)C(F)(F)F [Example 2-I, 4-(2,3-Difluoro-benzyloxy)-2-piperazin-1-yl-pyrimidine, trifluoroacetate]
5-HT2a receptor
  functional mode at 5-HT2a (partial agonist / full antagonist): full antagonists

## Cl.c1ccc(CNc2nccc(N3CCNCC3)n2)cc1 [Example 3-D, Benzyl-(4-piperazin-1-yl-pyrimidin-2-yl)-amine, hydrochloride]
5-HT2a receptor
  functional mode at 5-HT2a (partial agonist / full antagonist): full antagonists

## Cl.Clc1cccc(CNc2ccnc(N3CCNCC3)n2)c1 [Example 4-A, (3-Chloro-benzyl)-(2-piperazin-1-yl-pyrimidin-4-yl)-amine, hydrochloride]
5-HT2a receptor
  functional mode at 5-HT2a (partial agonist / full antagonist): full antagonists

## Cl.Fc1cccc(CNc2ccnc(N3CCNCC3)n2)c1 [Example 4-B, (3-Fluoro-benzyl)-(2-piperazin-1-yl-pyrimidin-4-yl)-amine, hydrochloride]
5-HT2a receptor
  functional mode at 5-HT2a (partial agonist / full antagonist): full antagonists

## Fc1cccc(CNc2ccnc(N3CCNCC3)n2)c1.O=C(O)/C=C/C(=O)O [Example 4-C, (3-Fluoro-benzyl)-(2-piperazin-1-yl-pyrimidin-4-yl)-amine, fumarate]
5-HT2a receptor
  functional mode at 5-HT2a (partial agonist / full antagonist): full antagonists

## Cl.c1ccc(CNc2ccnc(N3CCNCC3)n2)cc1 [Example 4-D, Benzyl-(2-piperazin-1-yl-pyrimidin-4-yl)-amine, hydrochloride]
5-HT2a receptor
  functional mode at 5-HT2a (partial agonist / full antagonist): full antagonists

## Clc1cccc(COc2nccc(N3CCNCC3)n2)n1 [Example 5-A, 2-(6-Chloro-pyrdin-2-ylmethoxy)-4-piperazin-1-yl-pyrimidine, hydrochloride]
5-HT2a receptor
  functional mode at 5-HT2a (partial agonist / full antagonist): full antagonists
